{
  "source": "patent US5157052A",
  "about": "“Method for inhibiting IgE production” (priority 1990, dated 1992)",
  "key": {"B220": {"tested_on": "B220", "assay": "Splenocyte cell surface density/distribution (FACS): B220", "format": "in vivo, mouse (Balb/c female)"}, "κ Light Chain": {"tested_on": "κ Light Chain", "assay": "Splenocyte cell surface density/distribution (FACS): κ Light Chain", "format": "in vivo, mouse (Balb/c female)", "description": "One group of 4 unstimulated Balb/c female mice is injected with PBS (Group A). Another (Group B) is injected with 20 μg (±) methyl 11α,16-dihydroxy-16-methyl-9-oxoprosta-5Z,13E-dien-1-oate as in Example 13. […] A 3 cm incision is made with a scalpel above the left hip, and the spleen is cut free from adjoining tissue and placed in a 100 mn plastic culture dish containing 10 ml PBS. The splenic cells are then made into a suspension, by rubbing the spleens between the rough, frosted ends of microscope slides repeatedly until the only remaining particulate matter is connective tissue. Cells are transferred to a 15 ml conical polystyrene tube and centrifuged in a centrifuge at 1200 rpm for 5 minutes. The supernatant is discarded by aspiration and the cell pellet is resuspended in 10 ml PBS, then centrifuged at 1200 rpm for 5 minutes. The supernatant is aspirated and the cell pellet is resuspended in 15 mM Tris, 140 mM Ammonium Chloride, to lyse red blood cells. After incubating at room temperature for 10 minutes the cell suspension is centrifuged at 1200 rpm for 10 minutes. The supernatant is discarded and the cell pellet is resuspended in 10 ml FACS Buffer (PBS containing 0.1% BSA and 0.1% Sodium Azide). The cell suspension is filtered through sterile glass wool plugged in the top of a pasteur pipet. Cells in the flow through are counted using a hemacytometer, then the cell suspension is centrifuged at 1200 rpm for 5 minutes. The supernatant is discarded and the cell pellet is resuspended in a volume of FACS Buffer that will yield 4×10^7 cells/ml. 10 μl (4×10^5 cells) is added to each well of a 96-well V-bottom plate. 25 μl of diluted monoclonal antibody directed against splenocyte cell surface proteins is added to each well: Major Histocompatability Complex (MHC) Class II (M5114, ATCC, Rockville Md.), MHC Class I (M1/42, ATCC), Anti-IgD (JA12.5, ATCC, Rockville, Md.), Thymocyte (Thy)-1 (JIJ, ATCC), B220 (14.8, ATCC), Kappa light chain (187, ATCC), IL-2 Receptor (7D4, ATCC), Lyt-1 (7.313, ATCC) and CD23 (biotinylated B3B4) and incubated on ice for 30 minutes. 100 μl 10% BSA 0.1% sodium azide is added to each well, then the plates are centrifuged at 1200 rpm for 10 minutes. The liquid is removed by aspiration and the cell pellets are resuspended in 100 μl FACS Buffer, and centrifuged at 1200 rpm for 5 minutes. […] Samples are transferred to individual tubes and 10,000 cells are analyzed. Using the Lysis software (Becton Dickinson, Mountain View, Calif.) the mean channel log fluorescence and percent positive cells are determined for the entire cell population. […]"}},
  "data": [
    {"smiles": "CCCCC(C)(O)C/C=C/[C@H]1[C@H](O)CC(=O)[C@@H]1C/C=C\\CCCC(=O)OC", "note": "(mixture of isomers) [(±) methyl 11α,16-dihydroxy-16-methyl-9-oxoprosta-5Z,13E-dien-1-oate]", "values": [
      {"measurement": "Percentage Positive Cells", "setting": "B220; anti-IgD stimulated mice, 20 μg days 3 and 4, day 7 (PBS 49.3)", "value": "61.2 ± .9%"},
      {"measurement": "Mean Channel Log Fluorescence", "setting": "B220; anti-IgD stimulated mice, 20 μg days 3 and 4, day 7 (PBS 107)", "value": "112 ± 4"},
      {"measurement": "Percentage Positive Cells", "setting": "B220; unstimulated mice, 20 μg (PBS 49.6)", "value": "50.6 ± 4.6", "unit": "%"},
      {"measurement": "Mean Channel Log Fluorescence", "setting": "B220; unstimulated mice, 20 μg (PBS 104)", "value": "105 ± 2.5"},
      {"measurement": "Percentage Positive Cells", "setting": "κ Light Chain; anti-IgD stimulated mice, 20 μg days 3 and 4, day 7 (PBS 50)", "value": "58 ± 14.6", "unit": "%"},
      {"measurement": "Mean Channel Log Fluorescence", "setting": "κ Light Chain; anti-IgD stimulated mice, 20 μg days 3 and 4, day 7 (PBS 118)", "value": "119 ± 7"},
      {"measurement": "Percentage Positive Cells", "setting": "κ Light Chain; unstimulated mice, 20 μg (PBS 52.1)", "value": "53.9 ± 2.1", "unit": "%"},
      {"measurement": "Mean Channel Log Fluorescence", "setting": "κ Light Chain; unstimulated mice, 20 μg (PBS 135)", "value": "131 ± 4"}
    ]}
  ]
}
